Measured values published in patent US10947252B2, “Inhibitors of KEAP1-Nrf2 protein-protein interaction” (Janssen Pharmaceutica NV, priority 2018, dated 2021).

Assays:
[1] = test system: Glo-Response ARE-luc2P HEK293 cell line; assay: ARE luciferase reporter cell-based assay; details: Homo sapiens, HEK293, 24 h, average of results obtained;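 further: luciferase signal tracks Nrf2 activation of the ARE once compounds disrupt KEAP1-Nrf2 binding, read with One-Glo reagent, DMSO serving as low control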
Method: The ARE assay utilizes a luciferase reporter cell line where the signal is proportional to NrF2 activation of the ARE. The cell line is commercially available from Promega and was prepared by stably transfecting HEK293 cells with a vector (pGL4.11) which contains the ARE response element upstream of a minimal promoter. The promoter drives expression of luc2 firefly luciferase gene. Upon disruption of KEAP1-Nrf2 binding by compound, Nrf2 translocates into the nucleus where it binds to the ARE and activates transcription of luciferase.
The materials used in this ARE assay are as follows: Glo-Response ARE-luc2P HEK293 cell line and One-Glo Luciferase Assay System were purchased from Promega (Madison, Wis.). Dulbecco's Modified Eagle medium ((DMEM), low glucose, GlutaMAX, pyruvate), fetal bovine serum (certified, heat inactivated), hygromycin B, Dulbecco's phosphate-buffered saline were purchased from Life Technologies (Grand Island, N.Y.). Penicillin, streptomycin solution (100×) and 0.05% trypsin-EDTA were purchased from Corning (Manassas, Va.). DMSO was purchased from EMD Millipore.
The ARE assay protocol is as follows: cells were maintained in growth medium (DMEM+10% FBS, 200 μg/mL hygromycin B, p-s) between 20-90% confluency by splitting twice per week. One day before the assay, cells were trypsinized, counted to determine viable cell count, and re-suspended in assay medium (DMEM+10% FBS, p-s) at 250,000 cells/mL. […] 100% DMSO was used as the low control. A 11-point dose series of the control compound was included on every plate. Compounds were spotted to an intermediate plate (Greiner #781280 V-bottom 384 well plate) using the Echo acoustic dispenser (Labscyte San Jose, Calif.). Spot size was 240 nL.
On the day of the assay, 60 mL per well of assay medium was added to the pre-spotted plate to make 2× compound stocks using the Combi (Thermo Waltham, Mass.). Compound and medium were mixed on the Janus and 20 mL of 2×compound stock was added to the cell plate which already contained 20 mL of assay medium from cell plating. […] The plates were returned to the tissue culture incubator for 24 hours.
The next day, luciferase activity was measured according to the manufacturer's protocol for One-Glo luciferase reagent. The plates were removed from the incubator and allowed to equilibrate to room temperature for 30 min. Forty microliters of One-Glo reagent (equilibrated to room temperature) was added per well using the Combi. The plates were mixed on an orbital shaker for 3 min. Luminescence was read on the BMG Pherastar multiplate reader (Cary, N.C.) using the luminescence protocol (1 sec interval).
The dose-response data were analyzed in Genedata Screener using 4PL nonlinear regression model. Raw luminescence counts as well as normalized values were used for data analysis.

[2] = molecular target: Kelch domain of human KEAP1 (321-624 aa) (Homo sapiens (Human), UniProt Q14145); assay: KEAP1 KELCH ThermoFluor binding assay; details: KEAP Kelch […], 1,8-ANS, pH 7.0, average of results obtained, read-out: Tf Kd;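 further: Ligand-induced melting temperature shift of E. coli-expressed KEAP1 Kelch protein, Kd estimated from concentration-response curves of ΔTm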
Sequence of Kelch domain of human KEAP1 (321-624 aa) (Q14145 321-624): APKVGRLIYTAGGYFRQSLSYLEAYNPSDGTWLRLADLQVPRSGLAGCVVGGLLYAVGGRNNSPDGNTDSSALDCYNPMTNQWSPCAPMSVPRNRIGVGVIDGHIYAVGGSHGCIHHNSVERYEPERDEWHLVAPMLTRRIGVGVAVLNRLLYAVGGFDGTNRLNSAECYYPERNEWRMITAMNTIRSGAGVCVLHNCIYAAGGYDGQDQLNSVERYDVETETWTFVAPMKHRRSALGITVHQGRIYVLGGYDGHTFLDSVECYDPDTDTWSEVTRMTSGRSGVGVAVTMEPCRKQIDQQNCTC

Structure (SMILES) | EC50 [1] [nM] | Kd [2] [nM]
Cc1ccc([C@H](c2ccn3c(C(F)(F)F)nnc3c2C)C(C)(C)C(=O)O)cc1CN1CC2(CCOCC2)Oc2nc(N[C@@H](C)CCO)c(C)cc2S1(=O)=O (single isomer, unassigned) [Example 123, (*R)-3-(3-((7′-(((S)-4-Hydroxybutan-2-yl)amino)-8′-methyl-1′,1′-dioxido-2,3,5,6-tetrahydrospiro[pyran-4,4′-pyrido[2,3-b][1,4,5]oxathiazepin]-2′(3′H)-yl)methyl)-4-methylphenyl)-2,2-dimethyl-3-(8-methyl-3-(trifluoromethyl)-[1,2,4[triazolo[4,3-a]pyridine-7-yl)propanoic Acid] | 28.9 | < 1
Cc1ccc([C@H](CC(=O)O)c2ccc3c(nnn3CC3CC3)c2C(F)F)cc1CN1C[C@@H]2CCCCN2c2ncccc2S1(=O)=O (single isomer, unassigned) [Example 172, (*S)-3-(1-(Cyclopropylmethyl)-4-(difluoromethyl)-1H-benzo[d][1,2,3]triazol-5-yl)-3-(3-(((*S)-5,5-dioxido-7,7a,8,9,10,11-hexahydro-6H-dipyrido[2,1-d:2′,3′-f][1,2,5]thiadiazepin-6-yl)methyl)-4-methylphenyl)propanoic Acid] | 19 | < 1
Cc1ccc([C@H](CC(=O)O)c2ccn3c(C(F)(F)F)nnc3c2C)nc1CN1C[C@H]2CCCCN2c2ncc(C#N)cc2S1(=O)=O (single isomer, unassigned) [Example 36, (*R)-3-(6-(((*R)-3-Cyano-5,5-dioxido-7,7a,8,9,10,11-hexahydro-6H-dipyrido[2,1-d:2′,3′-f][1,2,5]thiadiazepin-6-yl)methyl)-5-methylpyridin-2-yl)-3-(8-methyl-3-(trifluoromethyl)-[1,2,4]triazolo[4,3-a]pyridin-7-yl)propanoic Acid] | 15.2 | < 1
Cc1ccc([C@@H](c2ccn3c(C(F)F)nnc3c2C)C(C)(C)C(=O)O)cc1CN1CC2(CCOCC2)Oc2nc(OCCN3CCCCC3)c(C)cc2S1(=O)=O (single isomer, unassigned) [Example 379, (*S)-3-(3-(Difluoromethyl)-8-methyl-[1,2,4]triazolo[4,3-a]pyridine-7-yl)-2,2-dimethyl-3-(4-methyl-3-((8′-methyl-1′,1′-dioxido-7′-(2-(piperidin-1-yl)ethoxy)-2,3,5,6-tetrahydrospiro[pyran-4,4′-pyrido[2,3-b][1,4,5]oxathiazepin]-2′(3′H)-yl)methyl)phenyl)propanoic Acid] | 12.3 | < 1
Cc1cnc2c(c1)S(=O)(=O)N(Cc1cc([C@H](c3ccc4c(nnn4C4CC4)c3C)C(C)(C)C(=O)O)cnc1C)CC1(COC1)O2 (single isomer, unassigned) [Example 624, (*S)-3-(1-Cyclopropyl-4-methyl-1H-benzo[d][1,2,3]triazol-5-yl)-2,2-dimethyl-3-(6-methyl-5-((8′-methyl-1′,1′-dioxidospiro[oxetane-3,4′-pyrido[2,3-b][1,4,5]]oxathiazepin]-2′(3′H)-yl)methyl)pyridine-3-yl)propanoic Acid] | 3660 | 18400
COc1ccc2c(n1)OC1(CCOCC1)CN(Cc1cc([C@@H](c3ccn4c(C(F)F)nnc4c3C)C(C)(C)C(=O)O)ccc1C)S2(=O)=O (single isomer, unassigned) [Example 582, (*S)-3-(3-(Difluoromethyl)-8-methyl-[1,2,4]triazolo[4,3-a]pyridin-7-yl)-3-(3-((7′-methoxy-1′,1′-dioxido-2,3,5,6-tetrahydrospiro[pyran-4,4′-pyrido[2,3-b][1,4,5]oxathiazepin]-2′(3′H)-yl)methyl)-4-methylphenyl)-2,2-dimethylpropanoic Acid] | 1.43 | < 1
CC[C@@H]1CN(Cc2cc([C@H](CC(=O)O)c3cc(OC(F)F)c4c(c3)nnn4C)ccc2C)S(=O)(=O)c2cccnc2O1 (single isomer, unassigned) [Example 250, (*S)-3-(7-(Difluoromethoxy)-1-methyl-1H-benzo[d][1,2,3]triazol-5-yl)-3-(3-(((R)-4-ethyl-1,1-dioxido-3,4-dihydro-2H-pyrido[2,3-b][1,4,5]oxathiazepin-2-yl)methyl)-4-methylphenyl)propanoic Acid] | 32.8 | < 1
Cc1cnc2c(c1)S(=O)(=O)N(Cc1nc(C(CC(=O)O)c3ccn4c(C(F)(F)F)nnc4c3C)ccc1C)C[C@@H]1CCCCN21 (stereo in doubt) [Example 487, 3-(8-Methyl-3-(trifluoromethyl)-[1,2,4]triazolo[4,3-a]pyridin-7-yl)-3-(5-methyl-6-(((*S)-3-methyl-5,5-dioxido-7,7a,8,9,10,11-hexahydro-6H-dipyrido[2,1-d:2′,3′-f][1,2,5]thiadiazepin-6-yl)methyl)pyridin-2-yl)propanoic Acid] | 18.3 | < 1
Cc1ccc([C@@H](c2ccn3c(C(F)(F)F)nnc3c2C)C(C)(C)C(=O)O)cc1CN1CC2(CC2)Oc2nc(OCCN3CCCCC3)ccc2S1(=O)=O (single isomer, unassigned) [Example 371, (*S)-3-(3-1′,1′-Dioxido-7′-(2-(piperidin-1-yl)ethoxy)spiro[cyclopropane-1,4′-pyrido[2,3-b][1,4,5]oxathiazepin]-2′(3′H)-yl)methyl)-4-methylphenyl)-2,2-dimethyl-3-(8-methyl-3-(trifluoromethyl)-[1,2,4]triazolo[4,3-a][pyridine-7-yl)propanoic Acid] | 6 | < 1
CCn1nnc2c(C)c([C@@H](CC(=O)O)c3ccc(C)c(CN4CC5(COC5)Oc5ccccc5S4(=O)=O)n3)ccc21 (single isomer, unassigned) [Example 239, (*R)-3-(6-((1,1-Dioxidospiro[benzo[b][1,4,5]oxathiazepine-4,3′-oxetan]-2(3H)-yl)methyl)-5-methylpyridin-2-yl)-3-(1-ethyl-4-methyl-1H-benzo[d][1,2,3]triazol-5-yl)propanoic Acid] | 44 | 1.9
Cc1ccc([C@H](CC(=O)O)c2ccn3c(C(F)(F)F)nnc3c2C)cc1CN1C[C@H]2CCCN2c2ccccc2S1(=O)=O (single isomer, unassigned) [Example 266, (*S)-3-(3-(((R)-5,5-Dioxido-7a,8,9,10-tetrahydrobenzo[f]pyrrolo[2,1-d][1,2,5]thiadiazepin-6(7H)-yl)methyl)-4-methylphenyl)-3-(8-methyl-3-(trifluoromethyl)-[1,2,4]triazolo[4,3-a]pyridin-7-yl)propanoic Acid] | 14.6 | < 1
CC[C@@H]1CN(Cc2cc(C(CC(=O)O)c3ccn4c(C(F)(F)F)nnc4c3C)ccc2C)S(=O)(=O)c2cccnc2O1 (mixture of isomers) [Example 188, (R/S)-3-(3-(((R)-4-ethyl-1,1-dioxido-3,4-dihydro-2H-pyrido[2,3-b][1,4,5]oxathiazepin-2-yl)methyl)-4-methylphenyl)-3-(8-methyl-3-(trifluoromethyl)-[1,2,4]triazolo[4,3-a]pyridin-7-yl)propanoic acid] | 17 | < 1
Cc1ccc([C@H](CC(=O)O)c2ccn3c(C(F)(F)F)nnc3c2C)cc1CN1C[C@H]2CCCCN2c2ncc(C#N)cc2S1(=O)=O (single isomer, unassigned) [Example 9, (*S)-3-(3-(((*R)-3-Cyano-5,5-dioxido-7,7a,8,9,10,11-hexahydro-6H-dipyrido[2,1-d:2′,3′-f][1,2,5]thiadiazepin-6-yl)methyl)-4-methylphenyl)-3-(8-methyl-3-(trifluoromethyl)-[1,2,4]triazolo[4,3-a]pyridin-7-yl)propanoic Acid] | 3.8 | < 1
CCc1nnc2c(C)c([C@H](CC(=O)O)c3ccc(C)c(CN4C[C@H]5CCCN5c5ccccc5S4(=O)=O)c3)ccn12 (single isomer, unassigned) [Example 280, (*R)-3-(3-(((R)-5,5-Dioxido-7a,8,9,10-tetrahydrobenzo[f]pyrrolo[2,1-d][1,2,5]thiadiazepin-6(7H)-yl)methyl)-4-methylphenyl)-3-(3-ethyl-8-methyl-[1,2,4]triazolo[4,3-a]pyridin-7-yl)propanoic Acid] | 4010 | < 1
Cc1ccc([C@H](c2ccn3c(C(F)(F)F)nnc3c2C)C(C)(C)C(=O)O)cc1CN1C[C@@]2(CCOC2)Oc2ncccc2S1(=O)=O (single isomer, unassigned) [Example 386, (*R)-3-(3-(((*R)-1′,1′-Dioxido-4,5-dihydro-2H-spiro[furan-3,4′-pyrido[2,3-b][1,4,5]oxathiazepin]-2′(3′H)-yl)methyl)-4-methylphenyl)-2,2-dimethyl-3-(8-methyl-3-(trifluoromethyl)-[1,2,4]triazolo[4,3-a]pyridin-7-yl)propanoic Acid] | 343 | 1060
Cc1ccc([C@@H](CC(=O)O)c2ccn3c(C(F)F)nnc3c2C)cc1CN1C[C@H]2COCCN2c2ncccc2S1(=O)=O (single isomer, unassigned) [Example 462, (*R)-3-(3-(Difluoromethyl)-8-methyl-[1,2,4]triazolo[4,3-a]pyridin-7-yl)-3-(3-(((*S)-5,5-dioxido-7a,8,10,11-tetrahydro-[1,4]oxazino[3,4-d]pyrido[2,3-f][1,2,5]thiadiazepin-6(7H)-yl)methyl)-4-methylphenyl)propanoic Acid] | 2930 | 13.7
CCn1nnc2c(C)c([C@H](c3ccc(C)c(CN4CC5(CCOCC5)Oc5ncc(C)cc5S4(=O)=O)c3)C(C)(C)C(=O)O)ccc21 (single isomer, unassigned) [Example 420, (*S)-3-(1-ethyl-4-methyl-1H-benzo[d][1,2,3]triazol-5-yl)-2,2-dimethyl-3-(4-methyl-3-((8′-methyl-1′,1′-dioxido-2,3,5,6-tetrahydrospiro[pyran-4,4′-pyrido[2,3-b][1,4,5]oxathiazepin]-2′(3′H)-yl)methyl)phenyl)propanoic Acid] | 57.8 | 268
